Data taken from patent publication US20100274022A1, “G PROTEIN-COUPLED RECEPTOR INHIBITOR AND PHARMACEUTICAL PRODUCT” (PHARMAFRONTIER CO., LTD., priority 2007, published 2010).

Target: T1, humanGPR120 (Homo sapiens, UniProt Q5NUL3)
T1 construct: expressed in transfected cells
T1 sequence (Q5NUL3 1-377 isoform Q5NUL3-1 R67C/Q274H/I297T): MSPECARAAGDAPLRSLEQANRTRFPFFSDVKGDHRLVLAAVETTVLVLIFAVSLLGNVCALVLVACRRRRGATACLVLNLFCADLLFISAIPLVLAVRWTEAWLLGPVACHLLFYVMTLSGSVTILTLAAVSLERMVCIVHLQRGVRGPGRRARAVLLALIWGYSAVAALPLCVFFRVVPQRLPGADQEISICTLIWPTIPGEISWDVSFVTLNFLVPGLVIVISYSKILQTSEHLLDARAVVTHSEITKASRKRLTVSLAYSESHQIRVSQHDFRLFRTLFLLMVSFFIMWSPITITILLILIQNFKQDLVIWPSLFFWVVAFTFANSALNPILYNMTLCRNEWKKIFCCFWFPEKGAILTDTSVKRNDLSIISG
Assay: Inhibitory effect on activation (antagonistic activity): α-LA-stimulated increase in intracellular Ca2+ concentration measured by FLIPR in cells comprising GPR120
Format: cell-based

(E)-3-{3-[2-(2-nonylpyridinylamino)ethoxy]phenyl}acrylic acid [ATG-19]
antagonistic activity for GPR120 (result in words): significant antagonistic activity
